Assay [1] concerns osteoblast cells where hydroxy-urea is applied (in-vitro brittle bone disease model). The procedure:
(§1) The 2nd group has been determined as the boric acid group by adding 0.1 mM boric acid into the osteoblast culture medium. The 3rd group is the ageing group and has been cultured with 1 mM hydroxy-urea to the osteoblast culture medium and has been determined as the experimental brittle bone disease group. The 4th group has been determined as the group where boric acid is applied to the osteogenesis imperfecta model by applying […] boric acid to the cells where ageing model has been formed. Boric acid has been applied to 2nd and 4th groups for 72 hours and group 1 and group 3 have been cultured in their own culture media at the same durations.

The subject of assay [2] is osteoblast cells where ageing model is formed by hydroxy-urea. The procedure: as §1
Setting [3] is: 4th group: osteoblast + 1 mM hydroxy-urea + boric acid, 72 hours.
Setting [4] is: after applying boric acid, hydroxy-urea ageing model.

The values below come from patent US12472204B2, “Compound of element acid, which is in allotropic form, which enters into cellular interaction in some bone diseases” (CELAL BAYAR UNIVERSITESI DIGER MERKEZLER MUDURLUGU, priority 2020, dated 2025).

Structures are written as SMILES.

Take `OB(O)O` [boric acid, Boric acid]: in assay [1] (setting [3]), the cytoplasmic vacuoles result was “begin to occur”, the “epithelioid structure of osteoblast cells” value is “preserve their epithelioid structures” and the intercellular vacuoles result is “decrease”. In addition, the “augmentation of osteoblasts and protection of these cells from ageing” value in assay [1] (boric acid applied to the in-vitro model) was “favorable effects”. In addition, in assay [2] (setting [4]), the cellular morphology entry was “improved”, the “immuno-reactivity of osteocalcin released by osteoblasts” value is “increases” and the “immuno-reactivity of osteonectin released by osteoblasts” value is on record as “increases”. For the same molecule, the “proliferation in cells where ageing model is formed by hydroxy-urea” value in assay [2] (concluded from Ki-67 immuno-reactivity) is listed as “triggers proliferation”. Also, the “immuno-reactivity of Ki-67 (proliferation marker)” value in assay [2] (osteoblasts where boric acid is applied) is listed as “greater”.
